Measurements from patent US20130296434A1, “FORMULATIONS AND METHODS FOR TREATING AMYLOIDOSIS” (Kiacta Sarl, priority 2005, published 2013).

Columns and labels:
[1] = system: subjects having secondary (AA) amyloidosis; experiment: Randomized, double-blind, placebo-controlled 24-month efficacy and safety study of PDS in secondary (AA) amyloidosis; assay type: in vivo, human
Method: A multicenter, multinational, randomized, double-blind, placebo-controlled, and parallel-design study to assess the efficacy and safety of 1,3-propanedisulfonic acid disodium salt (PDS) in subjects having secondary (AA) amyloidosis is conducted. […] If ClCr decreases or increases to the next lower or higher range level, the dose regimen is adjusted accordingly. Subject medication is administered orally (capsule). Each patient is evaluated on 16 occasions, including on-site visits at months 0 (baseline), 1, 4, 8, 12, 16, 20 and 24.
The volume of urine is recorded in the case report form at study site and an aliquot of urine is sent to the central laboratory for determination of urinary creatinine. A blood sample is collected to measure serum creatinine. The creatinine clearance (ClCr) is calculated using the following formula and recorded in the case report form: […]
The creatinine clearance normalized for body surface area is calculated by dividing the creatinine clearance by the body surface area.
Subjects are classified into three categories based on a composite assessment of renal function at the end of the 24 month treatment period compared to baseline. […] Subjects are classified as “improved” if the following clinical milestones of improvement are met: ≧50% increase in ClCr and no clinical milestones of worsening. Subjects are classified as “stable” if none of the clinical milestones of worsening or improvement are met.
All subjects are categorized according to the evolution of their disease (“worse”, “stable”, or “improved”). This constitutes the primary efficacy endpoint for the study and is analyzed in the Intent-to-Treat (ITT) population according to two pre-specified statistical methodologies: 1) the Cochran-Mantel-Haenszel row mean scores test (CMH test) to compare the percentage of subjects who reach each category at the end of the study in comparison to their status at Baseline, and 2) a proportional hazards regression model (Cox analysis) to compare between treatment groups both the number of first “worse” events, as well as when they occur, thus making more use of all available data. Both methodologies are adjusted for the stratification of nephrotic status at Baseline (nephrotic vs non-nephrotic) as pre-specified.
The primary efficacy endpoint is a composite assessment of clinical improvement/worsening of renal function. At the end of the study, the subjects are classified into three categories, “Worse” and death (all causes), “Stable”, or “Improved”. […] The subjects are classified as “stable” if none of the clinical milestones of worsening or improvement are met. […] The term “End of Study” is defined as Month 24 for subjects who completed the study and as the last available measurement for the subjects who discontinued early.
The secondary efficacy endpoints are an assessment of clinical improvement/worsening of both renal and gastrointestinal functions. At the end of the study, subjects are classified into three categories based on their condition: worse, stable, or improved.
This parameter will be normalized for body surface area and the least-squares estimate of the within-subject slope will be calculated using all available creatinine clearance measurements. Although the study is for 2 years, the slope will be expressed as an annual rate of change.
Change from baseline to End of Study in Proteinuria and Creatinine Clearance will be analyzed as a secondary efficacy endpoint. The End of Study is defined as Month 24 for subjects who completed and as the last available visit for subjects who discontinued early. At Screening, proteinuria, creatinine clearance, and serum creatinine are to be collected from two distinct assessments which are to have been at least 1 week apart and within 3 months prior to study entry (Baseline visit). For the creatinine clearance parameter, the normalized value will be used.

[2] = Pharmacokinetics of single rising oral doses of PDS and food effect in healthy male subjects; assay type: in vivo, human; conditions: for AUC(0-inf) / AUC(0-t) / Cmax / Tmax: male, po; for AUC(0-inf) / AUC(0-t) / Cmax: mean; for Tmax: median
Description: In the following examples, terms are as defined below. The pharmacokinetic parameters were derived by non-compartmental analysis using WinNonlin® (Pharsight Corp., Mountain View, Calif., USA). • Cmax—the maximum observed plasma concentration. • Tmax—the time of occurrence of Cmax. • AUC0-t—the area under the plasma concentration versus time curve from time zero to the last sampling time at which concentrations were at or above the limit of quantification, calculated by the linear trapezoidal rule. • AUC∞—the area under the plasma concentrations versus time curve from time zero to infinity, calculated from AUC0-t+(Clast/λz), where Clast is the last observed quantifiable concentration and λz is the apparent terminal rate constant. • t1/2 the apparent terminal half-life, calculated from ln 2/λz
The safety, tolerability and pharmacokinetics of PDS following single oral administration in healthy male adult volunteers is determined. The effect of food on the pharmacokinetics of PDS is also determined. The first part of the study is a randomized, double-blind, placebo-controlled study to assess the pharmacokinetic profile of 6 single rising oral doses of PDS in healthy male subjects. The second part of this study is an open-label, two-way crossover study to investigate the effect of food on the pharmacokinetic profile of a single oral dose of PDS under fasted and fed conditions. Blood samples are collected during 36 hours following dosing. Plasma concentrations of PDS are determined using validated HPLC methods. […] The extent of systemic exposure (AUC and Cmax) to PDS increases with increasing dose. […] PDS should therefore not be given concomitantly with a high fat meal.

[3] = End of the Study, compared to placebo
[4] = composite renal assessment at end of 24 month treatment, 400-1200 mg BID by ClCr, p value=0.06
[5] = human, plasma, 100 mg, single oral 100 mg, healthy male subjects, n = 6
[6] = human, plasma, 200 mg, single oral 200 mg, healthy male subjects, n = 5
[7] = human, plasma, 400 mg, single oral 400 mg, healthy male subjects, n = 5
[8] = human, plasma, 800 mg, single oral 800 mg, healthy male subjects, n = 10
[9] = human, plasma, 1600 mg, single oral 1600 mg (rising dose part), healthy male subjects, n = 5
[10] = human, plasma, 1600 mg, single oral 1600 mg, Fasted, healthy male subjects, n = 8
[11] = human, plasma, 1600 mg, single oral 1600 mg, Fed (high-fat meal), healthy male subjects, n = 8
[12] = human, plasma, 2400 mg, single oral 2400 mg, healthy male subjects, n = 5

With O=S(=O)([O-])CCCS(=O)(=O)[O-].[Na+].[Na+] [PDS, 1,3-propanedisulfonic acid, disodium salt] the “mean difference in slope of creatinine clearance, treated vs. placebo” value ([1]; End of the Study) was 4.7 mL/min/1.73 m^2/year, the “median time to the first worse event” value ([1]; End of the Study, PDS treated subjects) was 14.5 months and the “reduction in the rate of loss of renal function (slope of creatinine clearance over time)” value ([1]; End of the Study, PDS-treated vs placebo) was 30.1%. The “reduction of risk of dialysis/ESRD” value [1, 3] was 46%, the “reduction of risk of doubling of serum creatinine” value [1, 3] was 59% and the “reduction of risk of ≧50% decrease in creatinine clearance” value [1, 3] was 52%. The “median time to dialysis, longer than placebo” value ([1]; End of the Study, patients progressing to dialysis) was 5.3 months, the “median time to doubling of serum creatinine, longer than placebo” value ([1]; End of the Study, patients with a doubling of SCr) was 3.6 months and the “median time to at least a 50% decrease in creatinine clearance, longer than placebo” value ([1]; End of the Study, patients with a ≧50% decrease in CrCl) was 4.4 months. The “risk of any worse event of renal decline or all-cause mortality, relative to the risk for placebo” value ([1]; End of the Study, printed as reduction to this % of the risk for placebo) was 42%, the “median time to the first worse event, longer than placebo” value ([1]; End of the Study, treated vs placebo) was 6.4 months and the “creatinine clearance, Change from End of Study to Baseline, Median” value ([1]; PDS group N = 89, n 85) was −11.35 mL/min/1.73 m^2. For the same compound, the “slope of creatinine clearance normalized for body surface area, Mean (S.E.)” value ([1]; PDS group N = 89, n 85, annual rate of change) was −10.9 (5.1) mL/min/1.73 m^2/year, the “slope of creatinine clearance normalized for body surface area, Median” value ([1]; PDS group N = 89, n 85, annual rate of change, P-value vs placebo 0.025) was −5.9 mL/min/1.73 m^2/year and the “creatinine clearance, Change from End of Study to Baseline, Mean (S.E.)” value ([1]; PDS group N = 89, n 85, p-value vs placebo 0.058) was −14.68 (4.19) mL/min/1.73 m^2. For the same compound, the “fewer subjects classified as worse compared to placebo” value [1, 4] was 13.4%, the “more subjects stable or improved compared to placebo” value [1, 4] was 13.4% and the “estimated difference in CrCl change, PDS vs placebo” value ([1]; end of the study) was 7.7 mL/min/1.73 m^2. The “mean difference in CrCl (baseline to end of study)” value ([1]; end of the study, PDS treated subjects) was −14.7±4.2 mL/min/1.73 m^2, the half-life ([2]; human, plasma, single oral doses 100-2400 mg, healthy male subjects, range of means, read-out: mean half-life (T1/2)) was 120 to 1560 min and the AUC(0-inf) [2, 5] was 419 ng·h/mL. The AUC(0-t) [2, 5] was 240 ng·h/mL, the Cmax [2, 5] was 99.5 ng/mL and the Tmax [2, 5] was 60 min. The AUC(0-t) [2, 6] was 626 ng·h/mL, the Cmax [2, 6] was 164 ng/mL and the Tmax [2, 6] was 60 min. It also gave an AUC(0-inf) [2, 7] of 2900 ng·h/mL, an AUC(0-t) [2, 7] of 1880 ng·h/mL and a Cmax [2, 7] of 1080 ng/mL. The Tmax [2, 7] was 30 min, the AUC(0-inf) [2, 8] was 4550 ng·h/mL and the AUC(0-t) [2, 8] was 4840 ng·h/mL. For the same compound, the Cmax [2, 8] was 2870 ng/mL, the Tmax [2, 8] was 30 min and the AUC(0-t) [2, 9] was 8410 ng·h/mL. For the same compound, the Cmax [2, 9] was 4760 ng/mL, the Tmax [2, 9] was 30 min and the AUC(0-inf) [2, 10] was 12800 ng·h/mL. The AUC(0-t) [2, 10] was 11500 ng·h/mL, the Cmax [2, 10] was 6460 ng/mL and the Tmax [2, 10] was 30 min. The AUC(0-inf) [2, 11] was 6320 ng·h/mL, the AUC(0-t) [2, 11] was 4010 ng·h/mL and the Cmax [2, 11] was 563 ng/mL. The Tmax [2, 11] was 135 min, the AUC(0-inf) [2, 12] was 12900 ng·h/mL and the AUC(0-t) [2, 12] was 12000 ng·h/mL. The Cmax [2, 12] was 6050 ng/mL, the Tmax [2, 12] was 30 min and the “effect of food on systemic availability” value ([2]; single oral 1600 mg, fed vs fasted conditions) was “decrease in both the rate and extent of systemic availability”. The “dose dependence of systemic exposure (AUC and Cmax)” value ([2]; single oral doses 100-2400 mg, healthy male subjects) was “reasonably proportional to the administered dose”.
